The values that follow come from patent US11498930B2 (BLUERAY THERAPEUTICS (SHANGHAI) CO., LTD., priority 2018, dated 2022).

Like-named read-outs stand apart in the source and are kept apart here.

In assay [1] the test system is phosphorylation level of intracellular protein kinase (ERK) in MOLM13 cells. Put plainly: Phosphorylated protein kinase (p-ERK) cell experiment (AlphaLISA). Type of assay: cell-based. How it is done: The inhibitory activities of the compounds on the phosphorylation level of intracellular protein kinase (ERK) were determined by AlphaLISA method.
Firstly, the cells were treated with the compounds. The compounds to be tested were subjected to 3-fold dilution with 100% DMSO, and a total of 9 different concentration gradients were set. MOLM13 cells were then seeded into 96-well plates at a density of 30,000 cells per well in a volume of 100 µL per well. […] of DMSO or the test compounds with different concentrations was then transferred into each well, setting two duplicates for each concentration, and the final concentration of DMSO was controlled at 0.5%.
Secondly, the cells were lysed. After 2 hours of cell treatment, the medium was removed, and the cells were washed 3 times with phosphate buffered saline. 50 µL of freshly prepared lysis buffer was added to each well, and the plates were shaken and kept at room temperature for 10 minutes.
Thirdly, the phosphorylated extracellular signal-regulated kinase (p-ERK) was detected by AlphaLISA@ SureFire® Ultra™ p-ERK 1/2 (Thr202/Tyr204) kit (Perkin Elmer, ALSU-PERK-A10K). 10 µL of the above lysate was transferred to a 384-well plate (Perkin Elmer, 6005350), and the phosphorylation level of the extracellular signal-regulated kinase of the sample was detected according to the product instructions. The signal was read using AlphaScreen detector on Spectra max i3 (Molecular Devices). The percentage of inhibition (%) was calculated by the following formula: Inhibition percentage(%)=(1−p-ERK signal of compound-treated cells/p-ERK signal of DMSO-treated cells)*100

A further assay concerns MOLM-13 cells. Put plainly: MOLM-13 cell proliferation experiment. The conditions noted are these: Homo sapiens. The assay is classed as cell-based. How it is done: After 3 days, 5 µL of CellTiter-Glo reagent (Promega, ZG7572) was added to each well, and the plates were kept at room temperature in the dark for 10 minutes. The […] was detected by Spectra max i3 (Molecular Devices). The relative growth rate of the treated cells was compared with that of DMSO control.

Another assay addresses SHP2^E76A protein (Homo sapiens (Human), UniProt Q06124, E76A). Put plainly: SHP2 enzyme activity inhibition experiment. The assay is classed as biochemical. On the procedure: Compound powders were dissolved in DMSO to prepare mother liquor.
During the experiment, the stock solutions of the compounds were subjected to 3-fold gradient dilution with DMSO, and 10 different test concentrations of each compound were set. […] The protein used was the activated protein SHP^2E76A with amino acid mutation at position 76 of the protein, and the substrate used was DiFMUP (Invitrogen, E12020). […] 50 µL of enzyme solution was added to the detection wells, followed by 50 µL of substrate. […] GraphPad Prism 5 was used for nonlinear regression analysis, and the curve of enzyme activity versus compound concentration was fitted by the equation Y=Bottom+(Top-Bottom)/(1+10^((Log IC50−X)*HillSlope)) to calculate the IC50 value of each compound.

Where [2] appears, read: p-ERK, MOLM13 cells, 2 hours of cell treatment, Tables 2.1 and 2.2, read-out: IC50.
Setting [3] is: Homo sapiens, MOLM-13, MOLM13 cells, Table 4, read-out: p-ERK IC50.
Setting [4] is: MOLM-13, 72 h, MOLM-13 cell proliferation, 3 days, Tables 3.1 and 3.2, read-out: IC50.
The mark [5] stands for this setting: MOLM-13, read-out: MOLM-13 cell proliferation IC50.
Where [6] appears, read: SHP2 enzyme activity, Tables 1.1 and 1.2, read-out: IC50.
Where [7] appears, read: Table 4, read-out: SHP2 enzyme activity IC50.
Where [8] appears, read: Homo sapiens, MOLM-13, p-ERK, MOLM13 cells, 2 hours of cell treatment, Tables 2.1 and 2.2, read-out: IC50.

Sequence of SHP2^E76A protein (Q06124 whole entry E76A): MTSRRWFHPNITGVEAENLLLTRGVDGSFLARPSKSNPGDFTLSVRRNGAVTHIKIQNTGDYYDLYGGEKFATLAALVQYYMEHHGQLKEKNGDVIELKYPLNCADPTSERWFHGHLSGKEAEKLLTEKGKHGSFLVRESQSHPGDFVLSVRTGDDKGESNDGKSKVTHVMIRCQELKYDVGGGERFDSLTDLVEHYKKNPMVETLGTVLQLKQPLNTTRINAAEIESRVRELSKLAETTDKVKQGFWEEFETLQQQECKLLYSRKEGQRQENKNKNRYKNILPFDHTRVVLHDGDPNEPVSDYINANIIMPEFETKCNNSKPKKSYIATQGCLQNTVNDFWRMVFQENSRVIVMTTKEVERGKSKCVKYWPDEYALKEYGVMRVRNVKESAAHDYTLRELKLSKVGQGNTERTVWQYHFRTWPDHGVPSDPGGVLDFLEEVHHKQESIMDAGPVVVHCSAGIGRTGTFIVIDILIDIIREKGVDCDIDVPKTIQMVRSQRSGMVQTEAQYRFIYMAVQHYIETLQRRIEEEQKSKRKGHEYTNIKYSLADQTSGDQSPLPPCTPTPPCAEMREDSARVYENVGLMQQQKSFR

On to `CC1C[C@@H](N)C2(CCN(c3ncc(Sc4cccc(Cl)c4Cl)c4nncn34)CC2)C1` (stereo partly shown), for which the IC50 in assay [1] (setting [2]) is below 100 nM.
On to `C[C@@H]1OCC2(CCN(c3ncc(Sc4ccnc(N)c4Cl)c4nncn34)CC2)[C@@H]1N`, for which the IC50 in assay [1] (setting [3]) is 335 nM; in the assay on MOLM-13 cells (setting [4]) it was 100 to 1000 nM; with MOLM-13 cells (setting [5]), 102 nM; at SHP2^E76A protein (setting [6]), below 100 nM; on SHP2^E76A protein (setting [7]), 13 nM.
Consider `C[C@@H]1OCC2(CCN(c3ncc(Sc4cccc(Cl)c4Cl)c4nncn34)CC2)[C@@H]1N` [listing 1 of 2 here], for which the IC50 in assay [1] (setting [3]) worked out at 195 nM; in the assay on MOLM-13 cells (setting [5]) it was 158 nM; at SHP2^E76A protein (setting [7]) it was 3 nM.
Consider `C[C@@H]1OCC2(CCN(c3ncc(Sc4cccc(Cl)c4Cl)c4nncn34)CC2)[C@@H]1N` [listing 2 of 2 here], for which the IC50 is 100 to 1000 nM in assay [1] (setting [8]), 100 to 1000 nM in the assay on MOLM-13 cells (setting [4]) and below 100 nM at SHP2^E76A protein (setting [6]).
For `N[C@@H]1CC(O)CC12CCN(c1ncc(Sc3cccc(Cl)c3Cl)c3nccn13)CC2` (stereo partly shown), the IC50 in assay [1] (setting [3]) is 28 nM; in assay [1] (setting [8]), below 100 nM; with MOLM-13 cells (setting [4]), below 100 nM; in the assay on MOLM-13 cells (setting [5]) it was 42 nM; on SHP2^E76A protein (setting [6]), below 100 nM; on SHP2^E76A protein (setting [7]), 9 nM.
For the compound `N[C@@H]1CCCC12CCN(c1ncc(Sc3cccnc3Cl)c3nccn13)CC2`, the IC50 (in assay [1] (setting [8]); in the assay on MOLM-13 cells (setting [4])) was 100 to 1000 nM each time.
With `N[C@@H]1CCCC12CCN(c1ncc(Sc3cccc(NC(=O)c4c(O)nc5n(c4=O)CCCC5)c3Cl)c3nccn13)CC2`, the IC50 in assay [1] (setting [2]) was below 100 nM.
As for `CC1(N)CCN(c2ncc(Sc3cccc(Cl)c3Cl)c3nncn23)CC1` [1-(8-((2,3-dichlorophenyl)thio)-[1,2,4]triazolo[4,3-c]pyrimidin-5-yl)-4-methylpiperidin-4-amine], the values for the IC50 (in assay [1] (setting [8]); in the assay with MOLM-13 cells (setting [4]); on SHP2^E76A protein (setting [6])) were 1000 to 10000 nM, 1000 to 10000 nM and 100 to 1000 nM, respectively.
As for `CC1C[C@@H](N)C2(CCN(c3ncc(Sc4cc(N)nc(Cl)c4Cl)c4nccn34)CC2)C1` (stereo partly drawn) [(1R)-8-(8-((6-amino-2,3-dichloropyridin-4-yl)thio)imidazo[1,2-c]pyrimidin-5-yl)-3-methyl-8-azaspiro[4.5]decan-1-amine], the IC50 with MOLM-13 cells (setting [4]) and at SHP2^E76A protein (setting [6]) was below 100 nM in each case.
Consider `Cc1nccc(Sc2cnc(N3CCC4(CC3)CO[C@@H](C)[C@H]4N)n3ncnc23)c1Cl` [(3S,4S)-8-(8-((3-chloro-2-methylpyridin-4-yl)thio)-[1,2,4]triazolo[1,5-c]pyrimidin-5-yl)-3-methyl-2-oxa-8-azaspiro[4.5]decan-4-amine], for which the IC50 is 1000 to 10000 nM in the assay with MOLM-13 cells (setting [4]) and 100 to 1000 nM at SHP2^E76A protein (setting [6]).
In the same order, the values of `C[C@@H]1OCC2(CCN(c3ncc(Sc4cc(N)nc(Cl)c4Cl)c4nncn34)CC2)[C@@H]1N` [(3S,4S)-8-(8-((6-amino-2,3-dichloropyridin-4-yl)thio)-[1,2,4]triazolo[4,3-c]pyrimidin-5-yl)-3-methyl-2-oxa-8-azaspiro[4.5]decan-4-amine] are 100 to 1000 nM and below 100 nM.
For `N[C@@H]1CCCN(c2ncc(Sc3cccc(Cl)c3Cl)c3nncn23)CC1` [(R)-1-(8-((2,3-dichlorophenyl)thio)-[1,2,4]triazolo[4,3-c]pyrimidin-5-yl)azepan-4-amine], the IC50 in the assay with MOLM-13 cells (setting [4]) lay in the range of 1000 to 10000 nM; at SHP2^E76A protein (setting [6]) it was 100 to 1000 nM.
In the same order, the values of `N[C@@H]1CCCC12CCN(c1ncc(Sc3cccc(Cl)c3Cl)c3nncn13)CC2` [(R)-8-(8-((2,3-dichlorophenyl)thio)-[1,2,4]triazolo[4,3-c]pyrimidin-5-yl)-8-azaspiro[4.5]decan-1-amine] are 100 to 1000 nM and below 100 nM.
For `N[C@@H]1CCOC12CCN(c1ncc(Sc3cccc(Cl)c3Cl)c3nccn13)CC2` [(R)-8-(8-((2,3-dichlorophenyl)thio)imidazo[1,2-c]pyrimidin-5-yl)-1-oxa-8-azaspiro[4.5]decan-4-amine], the IC50 (in assay [1] (setting [8]); at SHP2^E76A protein (setting [6])) was 100 to 1000 nM each time.
Consider `N[C@@H]1CCCC12CCN(c1ncc(Sc3ccc(Cl)cc3Cl)c3nncn13)CC2` [(R)-8-(8-((2,4-dichlorophenyl)thio)-[1,2,4]triazolo[4,3-c]pyrimidin-5-yl)-8-azaspiro[4.5]decan-1-amine], for which the values for the IC50 with MOLM-13 cells (setting [4]) and on SHP2^E76A protein (setting [6]) were 1000 to 10000 nM and 100 to 1000 nM, respectively.
For `CC(C)c1ccccc1Sc1cnc(N2CCC3(CCC[C@H]3N)CC2)n2cnnc12` [(R)-8-(8-((2-isopropylphenyl)thio)-[1,2,4]triazolo[4,3-c]pyrimidin-5-yl)-8-azaspiro[4.5]decan-1-amine], in that order: 1000 to 10000 nM and 100 to 1000 nM.
For `COc1ccccc1Sc1cnc(N2CCC3(CCC[C@H]3N)CC2)n2cnnc12` [(R)-8-(8-((2-methoxyphenyl)thio)-[1,2,4]triazolo[4,3-c]pyrimidin-5-yl)-8-azaspiro[4.5]decan-1-amine], in that order: 100 to 1000 nM and 100 to 1000 nM.
In the same order, the values of `Nc1cccc(Sc2cnc(N3CCC4(CCC[C@H]4N)CC3)n3ccnc23)c1Cl` [(R)-8-(8-((3-amino-2-chlorophenyl)thio)imidazo[1,2-c]pyrimidin-5-yl)-8-azaspiro[4.5]decan-1-amine] are 100 to 1000 nM and 100 to 1000 nM.
Take `N[C@@H]1CCCC12CCN(c1ncc(Sc3ccncc3Cl)c3ncnn13)CC2` [(R)-8-(8-((3-chloropyridin-4-yl)thio)-[1,2,4]triazolo[1,5-c]pyrimidin-5-yl)-8-azaspiro[4.5]decan-1-amine]: the IC50 with MOLM-13 cells (setting [4]) and on SHP2^E76A protein (setting [6]) was 1000 to 10000 nM throughout.
Turning to `N[C@@H]1CCCC12CCN(c1ncc(Sc3cccc4ccccc34)c3nncn13)CC2` [(R)-8-(8-(naphthalen-1-ylthio)-[1,2,4]triazolo[4,3-c]pyrimidin-5-yl)-8-azaspiro[4.5]decan-1-amine], the IC50 was 100 to 1000 nM in the assay on MOLM-13 cells (setting [4]) and below 100 nM on SHP2^E76A protein (setting [6]).
For `N[C@@H]1CCCC12CCN(c1ncc(Sc3ccccc3)c3nccn13)CC2` [(R)-8-(8-(phenylthio)imidazo[1,2-c]pyrimidin-5-yl)-8-azaspiro[4.5]decan-1-amine], in that order: 100 to 1000 nM and 100 to 1000 nM.
Take `N[C@@H]1CCCC12CCN(c1ncc(Sc3cccc(NC(=O)c4c(O)nc5n(c4=O)CCCC5)c3Cl)c3nccn13)CC2` [(R)-N-(3-((5-(1-amino-8-azaspiro[4.5]decan-8-yl)imidazo[1,2-c]pyrimidin-8-yl)thio)-2-chlorophenyl)-2-hydroxy-4-oxo-6,7,8,9-tetrahydro-4H-pyrido[1,2-a]pyrimidin-3-carboxamide]: the IC50 with MOLM-13 cells (setting [4]) and at SHP2^E76A protein (setting [6]) was 100 to 1000 nM each time.
`N[C@@H]1COCC12CCN(c1ncc(Sc3cccc(Cl)c3Cl)c3nccn13)CC2` [(S)-8-(8-((2,3-dichlorophenyl)thio)imidazo[1,2-c]pyrimidin-5-yl)-2-oxa-8-azaspiro[4.5]decan-4-amine]: the IC50 in the assay on MOLM-13 cells (setting [4]) is 100 to 1000 nM; at SHP2^E76A protein (setting [6]) it was below 100 nM.
For `N[C@@H]1COCC12CCN(c1ncc(Sc3ccnc(Cl)c3Cl)c3nncn13)CC2` [(S)-8-(8-((2,3-dichloropyridin-4-yl)thio)-[1,2,4]triazolo[4,3-c]pyrimidin-5-yl)-2-oxa-8-azaspiro[4.5]decan-4-amine], in that order: 100 to 1000 nM and 100 to 1000 nM.
Turning to `Nc1cc(Sc2cnc(N3CCC4(CC3)COC[C@H]4N)n3cnnc23)c(Cl)c(Cl)n1` [(S)-8-(8-((6-amino-2,3-dichloropyridin-4-yl)thio)-[1,2,4]triazolo[4,3-c]pyrimidin-5-yl)-2-oxa-8-azaspiro[4.5]decan-4-amine], the IC50 was 1000 to 10000 nM in the assay with MOLM-13 cells (setting [4]) and below 100 nM on SHP2^E76A protein (setting [6]).
On to `COC(=O)c1ccccc1Sc1cnc(N2CCC3(CCC[C@H]3N)CC2)n2ccnc12` [Methyl (R)-2-((5-(1-amino-8-azaspiro[4.5]decan-8-yl)imidazo[1,2-c]pyrimidin-8-yl)thio)benzoate], for which the IC50 in the assay with MOLM-13 cells (setting [4]) and on SHP2^E76A protein (setting [6]) was 100 to 1000 nM throughout.
For `CC1(N)CCN(c2cnc(-c3cccc(Cl)c3Cl)c(N)n2)CC1` [SHP099, 6-(4-amino-4-methylpiperidin-1-yl)-3-(2,3-dichlorophenyl)pyrazin-2-amine, reference compound], the IC50 in assay [1] (Homo sapiens, MOLM-13, read-out: p-ERK IC50) amounted to 2070 nM.
